The source of these data is paper PMC12068008 (International Journal of Molecular Sciences, 2024).

Series [1] in a line: DPPH radical scavenging assay. The conditions noted are these: 30 min incubation, 25 °C. As to the method: DPPH (2,2-diphenyl-1-picrylhydrazyl) radical scavenging assay was used to assess free-radical scavenging activity of synthesized compounds. Initially, 1 × 10^−4 M working solution of DPPH was prepared, and 350 µL was added to 350 µL of the solution of each compound. The final concentrations of the compounds (Q, 2a, and 2b) in the samples were 1 × 10^−3 M, 1 × 10^−4 M, and 1 × 10^−5 M. The control included ethanol only and DPPH–ethanol solution without compounds. The mixtures were incubated at 25 °C in the dark for 30 min. After incubation, the absorbance of the samples at 517 nm was measured in duplicate by using a UV/Vis spectrophotometer (Lambda 35, Perkin Elmer, Waltham, MA, USA). The DPPH radical scavenging ability was calculated using the following equation:(1) Antioxidative activity(%)=Acontrol−Asample/Acontrol×100% where Asample and Acontrol represent the absorbance at 517 nm of the sample and control, respectively. All samples were analysed in duplicate.

Series [2] can be described thus: Metal-chelating assay, binding stoichiometry (molar ratio method), Zn2+. In kind it is physicochemical. The conditions noted are these: ethanol, 30 min, compound 5 × 10^−5 M, one ion coordinates with two molecules. The method, then:
(§1) Binding stoichiometry was determined using the molar ratio method, with increasing concentrations of metal ions (from 0 to 1.5 × 10^−4 M) (Figures S1 and S2). Absorption spectra were collected 30 min after mixing. The change in absorption at the wavelength of maximum absorbance for the formed complex was plotted against the metal ion (M^2+ = Cu^2+, Zn^2+, and Fe^2+) to compound ratio (cM^2+/ccompound) and is presented in Figure 3. This graph allows the determination of the binding ratio between the newly synthesized compounds and metal ions. […] In contrast, the results for Fe^2+ indicate that only one Fe^2+ ion can bind to both compounds.
(§2) The metal-chelating ability of synthesized compounds in ethanol was assessed using UV/Vis spectrophotometer (Lambda 35, Perkin Elmer) recording spectra over a wavelength range of 230–600 nm in a 1 cm quartz cell. The mixture of compound at 5 × 10^−5 M of final concentration and metal ions at 1 × 10^−4 M of final concentration was incubated for 30 min at room temperature. The tested temperature was 25 °C. […]
(§3) The binding stoichiometry was assessed by adding increasing concentrations of metal ions (0–1.5 × 10^−4 M) to a fixed concentration of compound (5 × 10^−5 M) and incubating the mixture for 30 min at room temperature. The spectra were then measured as described above, and the ligand-to-metal chelation ratio in the complex was calculated.

Series [3] can be described thus: Metal-chelating assay, binding stoichiometry (molar ratio method), Fe2+. The format is physicochemical. The conditions noted are these: ethanol, 30 min, compound 5 × 10^−5 M. As to the method: as §1, §2, §3
For a further series, the target named is eeAChE (Electrophorus electricus, UniProt O42275). As to the kind of experiment: biochemical. The conditions noted are these: at 1 × 10^−4 M, 37 °C; for inhibition at 100 µM: read-out: Percentage Inhibition AChE. The method, then: The abilities of compounds to inhibit AChE and BuChE activity were determined following Ellman’s procedure, with AChI and BuChI as the enzyme substrate, respectively, and DTNB as a chromogenic reagent. AChE’s and BuChE’s working solutions were prepared at 20 mM TRIS and deionized water, respectively. AChI and BuChI solutions were prepared in deionized water. […] Stock solutions (10 mM) of investigated compounds were prepared daily by dissolving solid compounds in DMSO. The reaction mixture containing phosphate buffer, DTNB, enzyme, and compound was preincubated 30 min at 37 °C. After the preincubation time, the enzyme reaction was initiated by adding appropriate substrate and left to incubate for 6 min. After incubation, 0.1 M SDS was added to stop the reaction. […] A blank assay, containing all components except the enzyme, was used to account for non-enzyme reactions. The control solution contained all components except the inhibitor. All experiments were conducted in triplicate, and the results are expressed as the mean percentage enzyme activity compared to the control value. IC50 values were determined graphically using Origin 9 Microsoft Windows.

In another series the test system is HeLa cells. As to the kind of experiment: SRB assay, HeLa cells. The format is cell-based. The conditions noted are these: for Viability of HeLa cells: % of control, concentrations 1 × 10^−6 to 1 × 10^−4 M (not assigned to the values for 2a); for IC50: Homo sapiens, HeLa, 72 h after treatment, SRB, read-out: IC50 HeLa. The method, then: (§4) All cell lines were cultured in Dulbecco’s Modified Eagle’s Medium (DMEM) with 4500 mg/L glucose and L-glutamine (Capricorn Scientific, Ebsdorfergrund, Germany), supplemented with 10% foetal bovine serum (PAN-Biotech, Aidenbach, Germany), 10,000 U/mL penicillin, and 10 mg/mL streptomycin solution (Capricorn Scientific) under standard conditions at 37 °C in a humidified 5% CO2 atmosphere (ESCO, Lifesciences Group, Singapore).
(§5) Cells were seeded on a 96-well plate (Thermo Fisher Scientific, Waltham, MA, USA) at 2 × 10^3 cells per well in DMEM medium. For the analysis of the concentration- and time-dependent effect of the analysed compounds, cell monolayers were treated 24 h after seeding with concentrations 1 × 10^−6, 1 × 10^−5, and 1 × 10^−4 M for 24, 48, or 72 h. Cell viability was detected using sulforhodamine B (SRB) assay, based on the staining of cellular proteins. The assay was performed according to the procedure described by Skehan et al.. The cells were fixed with 10% trichloroacetic acid (TCA, CARLO ERBA Reagents GmbH, Emmendingen, Germany) for 1 h at 4 °C, washed with water, and stained for 15 min with 0.4% SRB (Sigma-Aldrich Chemie GmbH, Steinheim, Germany) in 1% acetic acid. The unbound SRB dye was rinsed with 1% acetic acid, while the protein-bound dye was extracted with a 10 mM Tris base (Sigma-Aldrich). […] The results were expressed as a percentage of the control, where the cell growth of the control is set to 100%. […] The selectivity index (SI) was determined according to the following formula:(2) SI=IC50 for fibroblast cell line/IC50 for tumour cell line
(§6) The assay was performed two times in 4 replicates for every experimental group. The statistical significance of differences between treated and untreated cells was estimated by the independent Student’s t-test, with the level of significance set at p < 0.05.
A general note: Sulforhodamine B stains cellular protein and so reports cell mass.

For another series, the system named is MDA-MB-231 cells. As to the kind of experiment: SRB assay, MDA-MB-231 cells. The conditions noted are these: for IC50: Homo sapiens, MDA-MB-231, 72 h after treatment, SRB, read-out: IC50 MDA-231. In kind it is cell-based. The method, then:
as §4, §5, §6

Where “and” joins values, the source holds several entries; their conditions need not be identical. Identical values can stand only once.

Chain of eeAChE (O42275 24-633): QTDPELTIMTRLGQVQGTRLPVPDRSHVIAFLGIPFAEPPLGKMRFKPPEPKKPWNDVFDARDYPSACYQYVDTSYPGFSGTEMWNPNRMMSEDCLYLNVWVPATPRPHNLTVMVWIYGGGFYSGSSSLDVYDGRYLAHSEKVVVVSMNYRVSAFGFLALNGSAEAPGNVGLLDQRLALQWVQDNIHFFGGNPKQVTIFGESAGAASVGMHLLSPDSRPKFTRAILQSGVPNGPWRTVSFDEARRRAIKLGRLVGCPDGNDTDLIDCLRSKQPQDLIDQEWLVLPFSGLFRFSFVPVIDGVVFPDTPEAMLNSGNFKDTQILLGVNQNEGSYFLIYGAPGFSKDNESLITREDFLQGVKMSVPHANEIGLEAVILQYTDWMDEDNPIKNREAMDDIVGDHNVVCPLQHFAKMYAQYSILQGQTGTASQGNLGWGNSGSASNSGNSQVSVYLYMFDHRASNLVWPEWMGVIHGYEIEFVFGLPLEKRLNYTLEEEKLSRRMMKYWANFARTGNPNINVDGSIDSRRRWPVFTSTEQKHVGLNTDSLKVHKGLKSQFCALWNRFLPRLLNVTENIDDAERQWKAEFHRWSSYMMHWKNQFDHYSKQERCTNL

As a reminder, the IC50 is the point on the concentration scale where inhibition reaches its midpoint. As a reminder, the inhibition is the percentage by which the read-out fell short of the control. `O=c1c(O)c(-c2ccc(O)c(O)c2)oc2c(CN3CCc4ccccc4C3)c(O)cc(O)c12` [Compound 2a]: the 50% inhibitory concentration (IC50) in series [1] amounted to 1.59 µM; in the series with HeLa cells, 53.5 ± 2.67 µM; with MDA-MB-231 cells it was 146 ± 7 µM. Besides, in series [2], the “binding stoichiometry Zn^2+” value is listed as 2. Also, the “binding stoichiometry Fe^2+ (ions bound)” value in series [3] is “one”. The inhibition at 100 µM at eeAChE came out at 33.3%. For the same compound, the “Viability of HeLa cells” value in the series with HeLa cells (48 h) was 43% and 37%; in the series on HeLa cells (72 h), 35% and 29%. The “Viability of MDA-231 cells” value in the series on MDA-MB-231 cells (72 h) is reported as “recovered to the control level or even increased”.
`COc1cc2c(cc1OC)CN(Cc1c(O)cc(O)c3c(=O)c(O)c(-c4ccc(O)c(O)c4)oc13)CC2` [Compound 2b]: the IC50 was 10.2 µM in series [1], 19.5 ± 0.97 µM with HeLa cells and 106 ± 5 µM in the series on MDA-MB-231 cells. Further, the “binding stoichiometry Zn^2+” value in series [2] is recorded as 2. The “binding stoichiometry Fe^2+ (ions bound)” value in series [3] is “one”. Further, the “Percentage Inhibition AChE” value at eeAChE worked out at 15.4%. In addition, the inhibition at 100 µM at eeAChE worked out at 15%.
